This is an account of results in patent publication US10202360B2 (CELGENE QUANTICEL RESEARCH, INC., priority 2016, dated 2019).

This assay has as its target CREBBP (Homo sapiens (Human), UniProt Q92793). As to the kind of experiment: In vitro enzyme inhibition assay - CREBBP inhibition (AlphaScreen, biotinylated H4-tetraacetyl peptide). It is filed as binding. Particulars: Table 28; AlphaScreen, H4-tetraacetyl peptide. An outline of the steps:
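His-tagged CREBBP expressed in E. coli (50 nM final) incubated with biotinylated H4K5/8/12/16(Ac) peptide (20 nM final) in HEPES pH 7.3 buffer, 0.4% DMSO, 20 min at room temperature.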

Sequence of CREBBP (Q92793 1081-1197): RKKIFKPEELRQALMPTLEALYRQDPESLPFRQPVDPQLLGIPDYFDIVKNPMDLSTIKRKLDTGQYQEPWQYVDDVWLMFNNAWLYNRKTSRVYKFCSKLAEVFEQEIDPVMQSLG

As for `CCS(=O)(=O)Nc1nc(Oc2c(C)cccc2F)nc(-c2cc(C)c(=O)n(C)c2)n1` [Example 171, Ethanesulfonic acid [4-(1,5-dimethyl-6-oxo-1,6-dihydro-pyridin-3-yl)-6-(2-fluoro-6-methyl-phenoxy)-[1,3,5]triazin-2-yl]-amide], the IC50 – broadly, the concentration that gives 50% inhibition – was less than 500 nM.
The molecule `Cc1cccc(F)c1Oc1nc(NS(=O)(=O)C(C)C)nc(-c2cc(C)c(=O)n(C)c2)n1` [Example 172, Propane-2-sulfonic acid [4-(1,5-dimethyl-6-oxo-1,6-dihydro-pyridin-3-yl)-6-(2-fluoro-6-methyl-phenoxy)-[1,3,5]triazin-2-yl]-amide] showed an IC50 of less than 500 nM.
On to `CCCS(=O)(=O)Nc1nc(Oc2c(C)cccc2F)nc(-c2cc(C)c(=O)n(C)c2)n1` [Example 173, Propane-1-sulfonic acid [4-(1,5-dimethyl-6-oxo-1,6-dihydro-pyridin-3-yl)-6-(2-fluoro-6-methyl-phenoxy)-[1,3,5]triazin-2-yl]-amide], for which the IC50 was less than 500 nM.
The molecule `CCCCS(=O)(=O)Nc1nc(Oc2c(C)cccc2F)nc(-c2cc(C)c(=O)n(C)c2)n1` [Example 174, Butane-1-sulfonic acid [4-(1,5-dimethyl-6-oxo-1,6-dihydro-pyridin-3-yl)-6-(2-fluoro-6-methyl-phenoxy)-[1,3,5]triazin-2-]-amide] returned an IC50 of less than 500 nM.
`CCS(=O)(=O)Nc1nc(Oc2c(C)cccc2F)nc(-c2ccc(=O)n(C)c2)n1` [Example 175, Ethanesulfonic acid [4-(2-fluoro-6-methyl-phenxoy)-6-(1-methyl-6-oxo-1,6-dihydro-pyridin-3-yl)-[1,3,5]triazin-2-yl]-amide] showed an IC50 of less than 500 nM.
Next, `Cc1cccc(F)c1Oc1nc(NS(=O)(=O)C(C)C)nc(-c2ccc(=O)n(C)c2)n1` [Example 176, Propane-2-sulfonic acid [4-(2-fluoro-6-methyl-phenoxy)-6-(1-methyl-6-oxo-1,6-dihydro-pyridin-3-yl)-[1,3,5]triazin-2-yl]-amide]: less than 500 nM; `CCCS(=O)(=O)Nc1nc(Oc2c(C)cccc2F)nc(-c2ccc(=O)n(C)c2)n1` [Example 177, Propane-1-sulfonic acid [4-(2-fluoro-6-methyl-phenoxy)-6-(1-methyl-6-oxo-1,6-dihdyro-pyridin-3-yl)-[1,3,5]triazin-2-yl]-amide]: less than 500 nM; `CCCCS(=O)(=O)Nc1nc(Oc2c(C)cccc2F)nc(-c2ccc(=O)n(C)c2)n1` [Example 178, Butane-1-sulfonic acid [4-(2-fluoro-6-methyl-phenoxy)-6-(1-methyl-6-oxo-1,6-dihydro-pyridin-3-yl)-[1,3,5]triazin-2-yl]-amide]: less than 500 nM.
The molecule `CCS(=O)(=O)Nc1nc(Oc2c(C)cccc2Cl)nc(-c2ccc(=O)n(C)c2)n1` [Example 179, Ethanesulfonic acid [4-(2-chloro-6-methyl-phenxoy)-6-(1-methyl-6-oxo-1,6-dihydro-pyridin-3-yl)-[1,3,5]triazin-2-yl]-amide] showed an IC50 of less than 500 nM.
In turn, `Cc1cccc(Cl)c1Oc1nc(NS(=O)(=O)C(C)C)nc(-c2ccc(=O)n(C)c2)n1` [Example 180, Propane-2-sulfonic acid [4-(2-chloro-6-methyl-phenoxy)-6-(1-methyl-6-oxo-1,6-dihydro-pyridin-3-yl)-[1,3,5]triazin-2-yl]-amide] showed an IC50 of less than 500 nM.
`CCCS(=O)(=O)Nc1nc(Oc2c(F)cccc2Cl)nc(-c2ccc(=O)n(C)c2)n1` [Example 181, Propane-1-sulfonic acid [4-(2-chloro-6-fluoro-phenoxy)-6-(1-methyl-6-oxo-1,6-dihydro-pyridin-3-yl)-[1,3,5]triazin-2-yl]-amide] registered an IC50 of less than 500 nM.
For `CCCCS(=O)(=O)Nc1nc(Oc2c(F)cccc2Cl)nc(-c2ccc(=O)n(C)c2)n1` [Example 182, Butane-1-sulfonic acid [4-(2-chloro-6-fluoro-phenoxy)-6-(1-methyl-6-oxo-1,6-dihydro-pyridin-3-yl)-[1,3,5]triazin-2-yl]-amide] the value was less than 500 nM.
Turning to `Cc1cccc(F)c1Oc1nc(NS(=O)(=O)CC(C)C)nc(-c2cc(C)c(=O)n(C)c2)n1` [Example 183, 2-Methyl-propane-1-sulfonic acid [4-(1,5-dimethyl-6-oxo-1,6-dihydro-pyridin-3-yl)-6-(2-fluoro-6-methyl-phenoxy)-[1,3,5]triazin-2-yl]-amide], the IC50 is less than 500 nM.
Consider `Cc1cccc(F)c1Oc1nc(NS(=O)(=O)C2CCCC2)nc(-c2cc(C)c(=O)n(C)c2)n1` [Example 184, Cyclopentanesulfonic acid [4-(1,5-dimethyl-6-oxo-1,6-dihydro-pyridin-3-yl)-6-(2-fluoro-6-methyl-phenoxy)-[1,3,5]triazin-2-yl]-amide], for which the IC50 is less than 500 nM.
For `CCCCCS(=O)(=O)Nc1nc(Oc2c(C)cccc2F)nc(-c2cc(C)c(=O)n(C)c2)n1` [Example 185, Pentane-1-sulfonic acid [4-(1,5-dimethyl-6-oxo-1,6-dihydro-pyridin-3-yl)-6-(2-fluoro-6-methyl-phenoxy)-[1,3,5]triazin-2-yl]-amide], the IC50 is less than 500 nM.
For `Cc1cccc(F)c1Oc1nc(NS(=O)(=O)CCC(C)C)nc(-c2cc(C)c(=O)n(C)c2)n1` [Example 186, 3-Methyl-butane-1-sulfonic acid [4-(1,5-dimethyl-6-oxo-1,6-dihydro-pyridin-3-yl)-6-(2-fluoro-6-methyl-phenoxy)-[1,3,5]triazin-2-yl]-amide] the value was less than 500 nM; for `CCCCS(=O)(=O)Nc1nc(Oc2c(C)cccc2Cl)nc(-c2cc(C)c(=O)n(C)c2)n1` [Example 188, Butane-1-sulfonic acid [4-(2-chloro-6-methyl-phenoxy)-6-(1,5-dimethyl-6-oxo-1,6-dihydro-pyridin-3-yl)-[1,3,5]triazin-2-yl]-amide], less than 500 nM; for `CCCCS(=O)(=O)Nc1nc(Oc2c(F)cccc2F)nc(-c2cc(C)c(=O)n(C)c2)n1` [Example 189, Butane-1-sulfonic acid [4-(2,6-difluoro-phenoxy)-6-(1,5-dimethyl-6-oxo-1,6-dihydro-pyridin-3-yl)-[1,3,5]triazin-2-yl]-amide], less than 500 nM.
Molecule `CCCCS(=O)(=O)Nc1nc(Oc2c(F)cccc2Cl)nc(-c2cc(C)c(=O)n(C)c2)n1` [Example 190, Butane-1-sulfonic acid [4-(2-chloro-6-fluoro-phenoxy)-6-(1,5-dimethyl-6-oxo-1,6-dihydro-pyridin-3-yl)-[1,3,5]triazin-2-yl]-amide] had an IC50 of less than 500 nM.
Consider `CCS(=O)(=O)Nc1cc(-c2cc(C)c(=O)n(C)c2)nc(-c2ccccc2)n1` [Example 191, Ethanesulfonic acid [6-(1,5-dimethyl-6-oxo-1,6-dihydro-pyridin-3-yl)-2-phenyl-pyrimidin-4-yl]-amide], for which the IC50 is 500 to 5000 nM.
Next, `CCS(=O)(=O)Nc1cc(-c2cc(C)c(=O)n(C)c2)nc(-c2ccccc2C)n1` [Example 192, Ethanesulfonic acid [6-(1,5-dimethyl-6-oxo-1,6-dihydro-pyridin-3-yl)-2-o-tolyl-pyrimidin-4-yl]-amide]: less than 500 nM.
The molecule `CCS(=O)(=O)Nc1cc(-c2cc(C)c(=O)n(C)c2)nc(-c2ccccc2OC)n1` [Example 193, Ethanesulfonic acid [6-(1,5-dimethyl-6-oxo-1,6-dihydro-pyridin-3-yl)-2-(2-methoxy-phenyl)-pyrimidin-4-yl]-amide] gave an IC50 of less than 500 nM.
